This is an account of results in patent US7157430B2, “(Substituted)acyl dipeptidyl inhibitors of the ICE/CED-3 family of cysteine proteases” (Idun Pharmaceuticals, Inc., priority 1998, dated 2007).

Common to all, as to type: biochemical
What all share (conditions): continuous assay 60 min, reaction initiated by adding enzyme

In one experiment the target is T1, mICE (Mus musculus, UniProt P29452).
T1 sequence (P29452 123-296 limits assumed): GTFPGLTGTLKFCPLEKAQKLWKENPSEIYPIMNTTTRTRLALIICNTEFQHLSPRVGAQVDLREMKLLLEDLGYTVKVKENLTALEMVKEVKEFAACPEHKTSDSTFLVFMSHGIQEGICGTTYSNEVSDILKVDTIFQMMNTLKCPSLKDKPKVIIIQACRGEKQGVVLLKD
T1 sequence (P29452 315-402 limits assumed): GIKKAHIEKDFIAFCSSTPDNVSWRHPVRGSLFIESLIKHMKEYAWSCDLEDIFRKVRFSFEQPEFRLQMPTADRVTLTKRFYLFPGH
The experiment can be described thus: Dissociation constant Ki and irreversible rate constant k3 for irreversible inhibitors, ICE. From the text:
(§1) For the irreversible inhibition of a ICE/ced-3 Family Protease enzyme with a competitive irreversible inhibitor; using the model represented by the following formulas: […]
(§2) The product formation at time t may be expressed as:
(§3) [formula] where E, I, EI and E-I denote the active enzyme, inhibitor, non-covalent enzyme-inhibitor complex and covalent enzyme-inhibitor adduct, respectively. The Ki value is the overall dissociation constant of the reversible binding steps, and k3 is the irreversible rate constant. The [S] and Ks values are the substate concentration and dissociation constant of the substrate bound to the enzyme, respectively. [E]^T is the total enzyme concentration.
(§4) The above equations were used to determine the Ki and k3 values of a given inhibitor bound to a ICE/ced-3 family protease. Thus, a continuous assay was run for sixty minutes at various concentrations of the inhibitor and the substrate. The assay was formulated essentially the same as described above for generating the data in Table 1, except that the reaction was initiated by adding the enzyme to the substrate-inhibitor mixture. The Ki and k3 values were obtained by simulating the product AMC formation as a function of time according to Equation 1.
(§5) The reference compound for this assay was Cbz-ValAlaAsp-CH2F and the values are denoted in Table 2 as “Reference”. The Ki values in Table 2 are in micromolar (μM). The k3/Ki values are in moles^−1 seconds^−1 (M^−1s^−1).

The next experiment deals with T2, CPP32 (Homo sapiens, UniProt P42574).
T2 sequence (P42574 29-175 limits assumed): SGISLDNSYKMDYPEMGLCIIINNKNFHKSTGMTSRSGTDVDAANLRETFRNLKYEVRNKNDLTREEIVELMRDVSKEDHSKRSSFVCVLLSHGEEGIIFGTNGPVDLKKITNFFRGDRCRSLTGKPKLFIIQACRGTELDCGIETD
T2 sequence (P42574 176-277 limits assumed): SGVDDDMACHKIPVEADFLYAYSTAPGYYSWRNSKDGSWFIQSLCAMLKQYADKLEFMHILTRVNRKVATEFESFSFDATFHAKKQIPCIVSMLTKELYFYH
In words: Dissociation constant Ki and irreversible rate constant k3 for irreversible inhibitors, CPP32.
Description: as §1, §2, §3, §4, §5

A further experiment has as its target T3, MCH-2 (Homo sapiens, UniProt P55212).
T3 sequence (P55212 24-179 limits assumed): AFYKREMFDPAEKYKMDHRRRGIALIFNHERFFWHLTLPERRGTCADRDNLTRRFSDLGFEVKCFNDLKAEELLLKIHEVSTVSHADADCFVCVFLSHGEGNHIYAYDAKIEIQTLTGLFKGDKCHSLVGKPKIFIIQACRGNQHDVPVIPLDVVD
T3 sequence (P55212 194-293 limits assumed): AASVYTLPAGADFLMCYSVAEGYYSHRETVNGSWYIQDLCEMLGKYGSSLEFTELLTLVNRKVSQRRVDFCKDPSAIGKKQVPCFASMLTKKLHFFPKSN
The experiment can be described thus: Dissociation constant Ki and irreversible rate constant k3 for irreversible inhibitors, Mch2.
Description: as §1, §2, §3, §4, §5

A further experiment concerns the target MCH-5 (Homo sapiens, UniProt Q14790). In words: Dissociation constant Ki and irreversible rate constant k3 for irreversible inhibitors, Mch5.
Description: as §1, §2, §3, §4, §5

Molecules are shown by their SMILES.

MCH-5, sequence (Q14790 217-374 limits assumed, species assumed): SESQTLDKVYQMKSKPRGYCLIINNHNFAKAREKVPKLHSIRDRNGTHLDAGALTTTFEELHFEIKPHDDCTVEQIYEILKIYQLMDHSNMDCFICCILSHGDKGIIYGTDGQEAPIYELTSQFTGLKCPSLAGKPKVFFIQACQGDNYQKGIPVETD
MCH-5, sequence (Q14790 385-479 limits assumed, species assumed): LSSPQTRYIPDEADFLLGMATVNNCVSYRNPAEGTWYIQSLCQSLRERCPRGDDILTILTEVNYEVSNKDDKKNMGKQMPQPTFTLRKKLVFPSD

Regarding `CCCCCCP(=O)(OCC(=O)[C@H](CC(=O)O)NC(=O)[C@@H](NC(=O)COc1cccc2ccccc12)C(C)C)c1ccccc1` (stereo partly drawn) [Example 106], at mICE, the Ki came out at 167 nM and the “mICE k3/Ki” value is listed as 42,500 M^−1s^−1. Also, on CPP32, the “CPP32 k3/Ki” value is 155,000 M^−1s^−1 and the Ki is 48 nM. On MCH-2, the Ki stood at 80 nM and the “MCH-2 k3/Ki” value is 52,900 M^−1s^−1. For the same molecule, on MCH-5, the Ki amounted to 134 nM and the “MCH-5 k3/Ki” value is reported as 10,500 M^−1s^−1.
As to `CC(C)C[C@H](NC(=O)COc1ccccc1-c1ccccc1)C(=O)N[C@@H](CC(=O)O)C(=O)COc1c(F)cc(F)cc1F` [Example 163], at mICE, the Ki worked out at 415 nM and the “mICE k3/Ki” value is recorded as 37,800 M^−1s^−1. Besides, at CPP32, the “CPP32 k3/Ki” value is 308,000 M^−1s^−1 and the Ki was 23 nM. In addition, on MCH-2, the Ki worked out at 12 nM and the “MCH-2 k3/Ki” value was 110,000 M^−1s^−1. For the same molecule, on MCH-5, the Ki stood at 252 nM and the “MCH-5 k3/Ki” value is 7,960 M^−1s^−1.
With `CC(C)C[C@H](NC(=O)COc1c(C(=O)O)ccc2ccccc12)C(=O)N[C@@H](CC(=O)O)C(=O)COc1c(F)c(F)cc(F)c1F` [Example 167], on mICE, the Ki is 501 nM and the “mICE k3/Ki” value was 21,300 M^−1s^−1. Besides, on CPP32, the “CPP32 k3/Ki” value is recorded as 56,200 M^−1s^−1 and the Ki worked out at 89 nM. Further, at MCH-2, the Ki was found to be 42 nM and the “MCH-2 k3/Ki” value is 52,500 M^−1s^−1. At MCH-5, the Ki stood at 126 nM and the “MCH-5 k3/Ki” value is on record as 13,600 M^−1s^−1.
For the molecule `CC(C)[C@H](NC(=O)COc1cccc2ccccc12)C(=O)N[C@@H](CC(=O)O)C(=O)COc1cc(F)ccc1F` [Example 70], on mICE, the Ki was found to be 399 nM and the “mICE k3/Ki” value is 12,100 M^−1s^−1. Moreover, on CPP32, the “CPP32 k3/Ki” value is given as 49,000 M^−1s^−1 and the Ki amounted to 104 nM. In addition, at MCH-2, the Ki came out at 357 nM and the “MCH-2 k3/Ki” value is given as 1,330 M^−1s^−1. On MCH-5, the Ki worked out at 760 nM and the “MCH-5 k3/Ki” value turned out to be 480 M⁻¹ s⁻¹.
Take `CC(C)[C@H](NC(=O)COc1cccc2ccccc12)C(=O)N[C@@H](CC(=O)O)C(=O)COc1ccccc1` [Example 64]: at mICE, the Ki came out at 262 nM and the “mICE k3/Ki” value was 3,630 M^−1s^−1. Moreover, on CPP32, the “CPP32 k3/Ki” value was 19,200 M^−1s^−1 and the Ki was found to be 62 nM. On MCH-2, the Ki was 153 nM and the “MCH-2 k3/Ki” value is reported as 2,400 M^−1s^−1. For the same molecule, on MCH-5, the Ki came out at 235 nM and the “MCH-5 k3/Ki” value is 4,260 M^−1s^−1.
For `CCCCCCP(=O)(OCC(=O)[C@H](CC(=O)O)NC(=O)[C@@H](NC(=O)COc1cccc2ccccc12)C(C)C)c1ccc(F)cc1` (stereo partly drawn) [Example 109], on mICE, the Ki was determined as 453 nM and the “mICE k3/Ki” value is reported as 15,500 M^−1s^−1. For the same molecule, on CPP32, the “CPP32 k3/Ki” value is given as 48,300 M^−1s^−1 and the Ki stood at 136 nM. Moreover, on MCH-2, the Ki is 119 nM and the “MCH-2 k3/Ki” value is on record as 16,800 M^−1s^−1. Besides, at MCH-5, the Ki turned out to be 219 nM and the “MCH-5 k3/Ki” value is recorded as 4,070 M^−1s^−1.
In the case of `O=C(O)CC(NC(=O)[C@@H]1Cc2ccccc2CN1C(=O)COc1cccc2ccccc12)C(=O)CF` (mixture of isomers) [Example 60], on mICE, the Ki worked out at 373 nM and the “mICE k3/Ki” value is reported as 33,500 M^−1s^−1. On CPP32, the “CPP32 k3/Ki” value is on record as 8,440 M^−1s^−1 and the Ki stood at 758 nM. For the same molecule, at MCH-5, the Ki came to 467 nM and the “MCH-5 k3/Ki” value is reported as 5,780 M^−1s^−1.
For `O=C(O)CC(NC(=O)[C@@H]1Cc2ccccc2N1C(=O)COc1cccc2ccccc12)C(=O)CF` (stereo partly drawn) [Example 61, (2′S,3RS)-3-[N-((1-Naphthyloxy)Acetyl)Indoline-2′-Carbonyl]Amino-5-Fluoro-4-Oxopentanoic Acid], at mICE, the Ki stood at 148 nM and the “mICE k3/Ki” value is reported as 93,200 M^−1s^−1. Also, at CPP32, the “CPP32 k3/Ki” value is recorded as 28,300 M^−1s^−1 and the Ki came to 360 nM. Further, on MCH-5, the Ki is 217 nM and the “MCH-5 k3/Ki” value is on record as 10,100 M^−1s^−1.
